Results on one substance are retold here after US10350315B2, “Quinoline-3-carboxamide compounds and their use in diagnosis” (Westfaelische Wihelms-Universitaet Muenster, priority 2014, dated 2019).

Entries after “also recorded” stand apart in the source; their conditions may differ.

Data set [1] deals with T1, S100A9 (Mus musculus, UniProt P31725).
T1 construct: from tissue; host or cells: living mice (inflamed ear, joints) and explanted mouse heart, aorta and lungs
T1 sequence (P31725 2-113 limits assumed): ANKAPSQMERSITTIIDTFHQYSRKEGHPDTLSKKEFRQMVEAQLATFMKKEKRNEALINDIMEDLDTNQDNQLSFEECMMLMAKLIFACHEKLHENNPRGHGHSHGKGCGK
Description: Irritant contact dermatitis (ICD) mouse model, SPECT/CT. The format is in vivo, mice. Particulars: 66 MBq per mouse i.v. As for the experimental part: FIG. 19: Accumulation of [^99mTc]FEB054 in the inflamed ear and muscle in a mouse model of contact dermatitis (ICD). The tracer was intravenously in a mouse model of contact dermatitis of the left ear in WT mice (=inflamed, right hand side) at a dose of 66 MBq per mouse and measured 0-60 min post injection.
Mice were injected and scanned under isoflurane/oxygen inhalation anaesthesia (1.4-1.8% isoflurane, 0.5 l O2/min). All animals were injected with a target dose of 2.5 MBq/g body weight) and a total injection volume ≤150 μl. […] Data analysis was performed by CT based definitions of regions-of-interest and quantitative mesurements are expressed as kBq/mL.
ICD was induced by the application of 20 μl 1% croton oil in olive oil-acetone (1:4) to the ventral surface of the left ear of mice for 24 h (n=5 per group), whereas the right ear served as a control. […] In the Cy7 channel the quantum yield is much lower compared to the Cy5.5 channel, which means that the recorded signal with Cy5.5-CES271 is higher than compared to […] (right image; FIG. 21). […] The labelling efficacy (dye/antibody ratio) was determined on the basis of ultraviolet-spectra of the purified dye-antibody compound using PBS as a reference buffer. […]

Data set [2] is described as follows: Biodistribution and elimination of [99mTc]FEB054 in healthy Balb/c mice (SPECT/CT). Format: in vivo. As for the experimental part: FIG. 18: Biodistribution (A) and elimination (B) of [^99mTc]FEB054 in healthy Balb/c mice. The tracer was intravenously injected at a dose of 62 MBq per mouse. The tracer accumulation and elimination was measured 0-90 min post injection.
Mice were injected and scanned under isoflurane/oxygen inhalation anaesthesia (1.4-1.8% isoflurane, 0.5 l O2/min). All animals were injected with a target dose of 2.5 MBq/g body weight) and a total injection volume ≤150 μl. For the image acquisition we used a NanoSPECT/CT-Plus preclinical camera (Mediso Medical Imaging Systems; Hungary), a 4-head gamma camera equipped with multi-pinhole collimators and a cone beam CT imaging system. In the shown studies we employed 9 pinholes/head with a diameter of 1.0 mm and a field of view of 30 mm×16 mm. 10 projections/scan and 60 seconds/projection resulting in a minimum of 100 kcounts/projection (in order to achieve high quality images with high statistics) were acquired. At the end of the SPECT measurement a CT scan was performed (same FOV as the SPECT scan) (55 kVp; 180 projections/rotation; 500 ms exposure time and 1 mm pitch with constant statistics). Data analysis was performed by CT based definitions of regions-of-interest and quantitative mesurements are expressed as kBq/mL.

A short description of data set [3]: Human blood serum stability at 37 °C (gradient HPLC). Format: in vitro ADME. Particulars: freshly prepared human blood serum, over 120 min. As for the experimental part: FIG. 17: Human serum blood stability of [^99mTc]FEB054. […] Blood serum stability was tested in freshly prepared human blood serum at 37° C. Samples were taken after 10, 20, 30, 60, 90 and 120 minutes and analysed using a gradient HPLC system. 5 MBq of [^99mTc]FEB054 in 20 μL PBS buffer was added to 200 μL of a freshly prepared human blood serum sample and incubated at 37° C. After 10, 20, 30, 60, 90 and 120 minutes, 20 μL were separated and diluted with 50 μL dichloromethane and 50 μL methanol. After centrifugation, 10 μL of the solution were analyzed via gradient-HPLC using a Knauer system with two Smartline 1000 pumps, Smartline UV detector 2500 (Herbert Knauer GmbH), a GabiStar γ-detector (Raytest lsotopenmessgeräte GmbH) and a reversed phase C18 column (Nucleosil 100-5 C-18 column 4.6 mm×250 mm). Eluent A: water (0.1% TFA). Eluent B: Methanol (0.1% TFA). […]
Blood serum stability was tested in freshly prepared human blood serum at 37° C. […] Samples were taken after 10, 20, 30, 60, 90 and 120 minutes and analysed using a gradient HPLC system. […] After centrifugation, 10 μl of the solution were analysed via gradient-HPLC using a Knauer system with two Smartline1000 pumps, Smartline UV-detector 2500 (Herbert Knauer GmbH), a GabiStar γ-detector (Raytest lsotopenmessgeräte GmbH) and a reverse phase […] column 4.6 mm×250 mm). […]

Data set [4] concerns the target T1, S100A9. Nature of the data set: Collagen induced arthritis mouse model, SPECT/CT. The format is in vivo, DBA/1j mice. The conditions noted are these: 55 MBq per mouse i.v. As for the experimental part:
FIG. 20: Accumulation of [^99mTc]FEB054 in a mouse model of collagen induced arthritis. The tracer was intravenously injected at a dose of 55 MBq per mouse. […] The tracer distribution was measured in vivo 60 min post injection using SPECT/CT.
Induction and imaging of CIA: Arthritis was induced in DBA/1j mice by injection of bovine collagen type II. Bovine collagen type II (bCII, MD Biosciences) was dissolved in 0.05 M acetic acid at a concentration of 2 mg/ml. DBA/1j mice were injected subcutaneously at the tail base with 100 μg bCII emulsified in CFA (Difco) and boostered on day 21 with 100 μg bCII in IFA at the same location. Mice were regularly inspected from day 14 after disease induction and scored for swelling, erythema and deformation of each joint three times a week. Imaging was performed after arthritis was clinically detectable in the majority of treated animals at indicated time points after tracer application of either Cy5.5-CES271 or [99mTc]FEB054.
SPECT/CT imaging of inflamed joints was recorded 1 h after iv injection of [99mTc]FEB054 (55 MBq of [99mTc]FEB054 per mouse). Individual feet of the mice were analysed separately according to the histological score. […] Even single affected joints could be clearly identified.

Take “fac-[^99mTc(CO)3(5-ethyl-4-hydroxy-1-methyl-N-{1-(1-methyl-1H-imidazol-2-yl)-2-[(1-methyl-1H-imidazol-2-yl)methyl]-5,8,11-trioxa-2-azatridecan-13-yl}-2-oxo-N-phenyl-1,2-dihydroquinoline-3-carboxamide)]^+ [[^99mTc]FEB054]”: the “Tracer uptake in the inflamed ear compared to the healthy control ear” value on S100A9 [1] (45 minutes post injection) is “higher tracer uptake”. In addition, at S100A9 [1] (dynamic imaging 0-60 min post injection), the “Uptake ratios inflamed ear versus blood and muscle” value is on record as “increasing uptake ratios”. In addition, in data set [2] (62 MBq per mouse i.v.), the “Accumulation of the tracer in the liver and intestines” value is reported as “intensive accumulation”; the “Time of hepato-biliary elimination” value is recorded as not above 20 min. Further, the Route of elimination entry in data set [2] (62 MBq per mouse i.v., 0-90 min post injection) was “predominant hepato-biliary elimination”. The “Tracer availability in the blood” value in data set [2] (62 MBq per mouse i.v., first 10 minutes) is “good tracer availability in the blood”. The Blood half-life entry in data set [2] (mouse, in vivo) is given as “suitable”. For the same substance, the “Human blood serum stability (decomposition)” value in data set [3] is given as “very good; also recorded: no decomposition”. For the same substance, the “Correlation of SPECT signal with clinical scoring” value on S100A9 [4] (1 h after injection) is “excellent correlation”. Besides, on S100A9 [4] (60 min post injection), the “Tracer accumulation in inflamed joints of the hind limbs versus healthy control mouse” value is recorded as “tracer accumulation in the inflamed joints”; the “Tracer accumulation in liver, intestines, kidneys and urinary bladder” value is given as “intensive tracer accumulation”.
